Results from ChEMBL document CHEMBL5154649, “Design, synthesis, and characterization of novel aminoalcohol quinolines with strong in vitro antimalarial activity” (Eur J Med Chem, 2022).

Tested on: not listed separately
Test: Cytotoxicity against human THP-1 cells assessed as reduction in cell viability incubated for 72 hrs by MTT assay
Type: toxicity, cell-based
Conditions: not given
Molecule OC[C@H](Cc1ccccc1)NC[C@@H](O)c1cc(C(F)(F)F)nc2c(C(F)(F)F)cccc12 has an IC50 at 72 h of 7200 nM. Work on O[C@@H](CNCC1CC1)c1cc(C(F)(F)F)nc2c(C(F)(F)F)cccc12 yielded an IC50 at 72 h of 12400 nM. Molecule O[C@H](CNCCNC(c1ccccc1)c1ccccc1)c1cc(C(F)(F)F)nc2c(C(F)(F)F)cccc12 has an IC50 at 72 h of 8900 nM. With O[C@H](CNCC1CC1)c1cc(C(F)(F)F)nc2c(C(F)(F)F)cccc12 the IC50 at 72 h was 6900 nM.

Tested on: Plasmodium berghei
Test: Antimalarial activity against Plasmodium berghei ANKA infected in BALB/c mouse assessed as time required for clearance of blood parasites at 9 mg/kg, ip administered daily for 5 days
Type: functional
Conditions: time 5 day
With Cl.O[C@@H](c1cc(C(F)(F)F)nc2c(C(F)(F)F)cccc12)[C@H]1CCCCN1 (relative stereo) the Time was less than 100 h.

Tested on: not listed separately
Test: Selectivity index, ratio of IC50 for cytotoxicity against human HepG2 cells to IC50 for antiplasmodial activity against Plasmodium falciparum 3D7 infected in human erythrocytes by HRP2-ELISA
Type: toxicity, cell-based
Conditions: read-out: Ratio IC50
For OC[C@H](Cc1ccccc1)NC[C@@H](O)c1cc(C(F)(F)F)nc2c(C(F)(F)F)cccc12, the selectivity ratio was 188. O[C@@H](CNCC1CC1)c1cc(C(F)(F)F)nc2c(C(F)(F)F)cccc12 showed a selectivity ratio of 369. Work on O[C@H](CNCCNC(c1ccccc1)c1ccccc1)c1cc(C(F)(F)F)nc2c(C(F)(F)F)cccc12 yielded a selectivity ratio of 268. For O[C@H](CNCC1CC1)c1cc(C(F)(F)F)nc2c(C(F)(F)F)cccc12, the selectivity ratio was 333.

Tested on: not listed separately
Test: Cytotoxicity against Chinese hamster CHO cells assessed as reduction in cell viability incubated for 24 hrs by MTT assay
Type: toxicity, cell-based, Cricetulus griseus
Conditions: not given
Molecule OC[C@H](Cc1ccccc1)NC[C@@H](O)c1cc(C(F)(F)F)nc2c(C(F)(F)F)cccc12 has an IC50 at 24 h of 29700 nM. O[C@@H](CNCC1CC1)c1cc(C(F)(F)F)nc2c(C(F)(F)F)cccc12 gave an IC50 at 24 h of 25400 nM. In the case of O[C@H](CNCCNC(c1ccccc1)c1ccccc1)c1cc(C(F)(F)F)nc2c(C(F)(F)F)cccc12, the IC50 at 24 h is reported as 9000 nM. Molecule O[C@H](CNCC1CC1)c1cc(C(F)(F)F)nc2c(C(F)(F)F)cccc12 has an IC50 at 24 h of 31000 nM.

Tested on: Plasmodium falciparum
Test: Antiplasmodial activity against CQ-susceptible Plasmodium falciparum 3D7 assessed as inhibition of parasite growth measured after 48 hrs by SYBR Green 1 dye based fluorescence assay
Type: functional, organism-based
Conditions: 3D7, 48 h
Work on OC[C@H](Cc1ccccc1)NC[C@@H](O)c1cc(C(F)(F)F)nc2c(C(F)(F)F)cccc12 yielded an IC50 of 30.2 nM. Molecule O[C@@H](CNCC1CC1)c1cc(C(F)(F)F)nc2c(C(F)(F)F)cccc12 has an IC50 of 23 nM. O[C@H](CNCCNC(c1ccccc1)c1ccccc1)c1cc(C(F)(F)F)nc2c(C(F)(F)F)cccc12 showed an IC50 of 35.2 nM. With O[C@H](CNCC1CC1)c1cc(C(F)(F)F)nc2c(C(F)(F)F)cccc12 the IC50 was 4.1 nM.

Tested on: not listed separately
Test: Selectivity index, ratio of IC50 for cytotoxicity against human THP-1 cells to IC50 for antiplasmodial activity against Plasmodium falciparum 3D7 infected in human erythrocytes by HRP2-ELISA
Type: toxicity, cell-based
Conditions: read-out: Ratio IC50
With OC[C@H](Cc1ccccc1)NC[C@@H](O)c1cc(C(F)(F)F)nc2c(C(F)(F)F)cccc12 the selectivity ratio was 124. Molecule O[C@@H](CNCC1CC1)c1cc(C(F)(F)F)nc2c(C(F)(F)F)cccc12 has a selectivity ratio of 693. For O[C@H](CNCCNC(c1ccccc1)c1ccccc1)c1cc(C(F)(F)F)nc2c(C(F)(F)F)cccc12, the selectivity ratio was 372. For O[C@H](CNCC1CC1)c1cc(C(F)(F)F)nc2c(C(F)(F)F)cccc12, the selectivity ratio was 534.

Tested on: not listed separately
Test: Selectivity index, ratio of IC50 for human HFF cells to IC50 for antiplasmodial activity against Plasmodium falciparum 3D7 infected in human erythrocytes by HRP2-ELISA
Type: toxicity, cell-based
Conditions: read-out: Ratio IC50
OC[C@H](Cc1ccccc1)NC[C@@H](O)c1cc(C(F)(F)F)nc2c(C(F)(F)F)cccc12 gave a selectivity ratio of 437. O[C@@H](CNCC1CC1)c1cc(C(F)(F)F)nc2c(C(F)(F)F)cccc12 gave a selectivity ratio of 2700. With O[C@H](CNCCNC(c1ccccc1)c1ccccc1)c1cc(C(F)(F)F)nc2c(C(F)(F)F)cccc12 the selectivity ratio was 694. For O[C@H](CNCC1CC1)c1cc(C(F)(F)F)nc2c(C(F)(F)F)cccc12, the selectivity ratio was 1430.

Tested on: not listed separately
Test: Cytotoxicity against human HFF cells assessed as reduction in cell viability incubated for 72 hrs by MTT assay
Type: toxicity, cell-based
Conditions: not given
For OC[C@H](Cc1ccccc1)NC[C@@H](O)c1cc(C(F)(F)F)nc2c(C(F)(F)F)cccc12, the IC50 at 72 h was 25400 nM. In the case of O[C@@H](CNCC1CC1)c1cc(C(F)(F)F)nc2c(C(F)(F)F)cccc12, the IC50 at 72 h is reported as 48400 nM. O[C@H](CNCCNC(c1ccccc1)c1ccccc1)c1cc(C(F)(F)F)nc2c(C(F)(F)F)cccc12 showed an IC50 at 72 h of 16600 nM. With O[C@H](CNCC1CC1)c1cc(C(F)(F)F)nc2c(C(F)(F)F)cccc12 the IC50 at 72 h was 18500 nM.

Tested on: Plasmodium falciparum
Test: Antiplasmodial activity against CQ-resistant Plasmodium falciparum W2 assessed as inhibition of parasite growth measured after 48 hrs by SYBR Green 1 dye based fluorescence assay
Type: functional, organism-based
Conditions: W2, 48 h
OC[C@H](Cc1ccccc1)NC[C@@H](O)c1cc(C(F)(F)F)nc2c(C(F)(F)F)cccc12 showed an IC50 of 5.6 nM. O[C@@H](CNCC1CC1)c1cc(C(F)(F)F)nc2c(C(F)(F)F)cccc12 gave an IC50 of 16.8 nM. With O[C@H](CNCCNC(c1ccccc1)c1ccccc1)c1cc(C(F)(F)F)nc2c(C(F)(F)F)cccc12 the IC50 was 29.6 nM. Molecule O[C@H](CNCC1CC1)c1cc(C(F)(F)F)nc2c(C(F)(F)F)cccc12 has an IC50 of 4.1 nM.

Tested on: Plasmodium falciparum
Test: Antiplasmodial activity CQ-resistant Plasmodium falciparum W2 infected in human erythrocytes assessed as inhibition of parasite growth measured after 72 hrs by HRP2-ELISA
Type: functional, organism-based
Conditions: W2, Erythrocyte
With OC[C@H](Cc1ccccc1)NC[C@@H](O)c1cc(C(F)(F)F)nc2c(C(F)(F)F)cccc12 the IC50 was 39.4 nM. O[C@@H](CNCC1CC1)c1cc(C(F)(F)F)nc2c(C(F)(F)F)cccc12 showed an IC50 of 15.3 nM. Molecule O[C@H](CNCCNC(c1ccccc1)c1ccccc1)c1cc(C(F)(F)F)nc2c(C(F)(F)F)cccc12 has an IC50 of 14.1 nM. In the case of O[C@H](CNCC1CC1)c1cc(C(F)(F)F)nc2c(C(F)(F)F)cccc12, the IC50 is reported as 15.8 nM.

Tested on: not listed separately
Test: Cytotoxicity against human HepG2 cells assessed as reduction in cell viability incubated for 72 hrs by MTT assay
Type: toxicity, cell-based
Conditions: not given
OC[C@H](Cc1ccccc1)NC[C@@H](O)c1cc(C(F)(F)F)nc2c(C(F)(F)F)cccc12 gave an IC50 at 72 h of 10900 nM. In the case of O[C@@H](CNCC1CC1)c1cc(C(F)(F)F)nc2c(C(F)(F)F)cccc12, the IC50 at 72 h is reported as 6600 nM. In the case of O[C@H](CNCCNC(c1ccccc1)c1ccccc1)c1cc(C(F)(F)F)nc2c(C(F)(F)F)cccc12, the IC50 at 72 h is reported as 6400 nM. With O[C@H](CNCC1CC1)c1cc(C(F)(F)F)nc2c(C(F)(F)F)cccc12 the IC50 at 72 h was 4300 nM.

Tested on: not listed separately
Test: Selectivity index, ratio of IC50 for cytotoxicity against chinese hamster CHO cells to IC50 for antiplasmodial activity against Plasmodium falciparum 3D7 infected in human erythrocytes by HRP2-ELISA
Type: toxicity, cell-based
Conditions: read-out: Ratio IC50
With OC[C@H](Cc1ccccc1)NC[C@@H](O)c1cc(C(F)(F)F)nc2c(C(F)(F)F)cccc12 the selectivity ratio was 511. Molecule O[C@@H](CNCC1CC1)c1cc(C(F)(F)F)nc2c(C(F)(F)F)cccc12 has a selectivity ratio of 1420. O[C@H](CNCCNC(c1ccccc1)c1ccccc1)c1cc(C(F)(F)F)nc2c(C(F)(F)F)cccc12 gave a selectivity ratio of 377. O[C@H](CNCC1CC1)c1cc(C(F)(F)F)nc2c(C(F)(F)F)cccc12 showed a selectivity ratio of 2400.

Tested on: Plasmodium falciparum
Test: Selectivity index, ratio of IC50 for antiplasmodial activity against CQ-susceptible Plasmodium falciparum 3D7 to IC50 for antiplasmodial activity CQ-resistant Plasmodium falciparum W2 by HRP2-ELISA
Type: functional
Conditions: not given
OC[C@H](Cc1ccccc1)NC[C@@H](O)c1cc(C(F)(F)F)nc2c(C(F)(F)F)cccc12 gave a Ratio IC50 of 1.5. O[C@@H](CNCC1CC1)c1cc(C(F)(F)F)nc2c(C(F)(F)F)cccc12 gave a Ratio IC50 of 1.2. Molecule O[C@H](CNCCNC(c1ccccc1)c1ccccc1)c1cc(C(F)(F)F)nc2c(C(F)(F)F)cccc12 has a Ratio IC50 of 1.7. With O[C@H](CNCC1CC1)c1cc(C(F)(F)F)nc2c(C(F)(F)F)cccc12 the Ratio IC50 was 0.8.

Tested on: Plasmodium falciparum
Test: Selectivity index, ratio of IC50 for antiplasmodial activity against CQ-susceptible Plasmodium falciparum 3D7 to IC50 for antiplasmodial activity against CQ-resistant Plasmodium falciparum W2 by SYBR Green 1 dye based fluorescence assay
Type: functional
Conditions: not given
For OC[C@H](Cc1ccccc1)NC[C@@H](O)c1cc(C(F)(F)F)nc2c(C(F)(F)F)cccc12, the Ratio IC50 was 5.4. In the case of O[C@@H](CNCC1CC1)c1cc(C(F)(F)F)nc2c(C(F)(F)F)cccc12, the Ratio IC50 is reported as 1.4. Work on O[C@H](CNCCNC(c1ccccc1)c1ccccc1)c1cc(C(F)(F)F)nc2c(C(F)(F)F)cccc12 yielded a Ratio IC50 of 1.2. For O[C@H](CNCC1CC1)c1cc(C(F)(F)F)nc2c(C(F)(F)F)cccc12, the Ratio IC50 was 1.

Tested on: Plasmodium falciparum
Test: Antiplasmodial activity against CQ-susceptible Plasmodium falciparum 3D7 infected in human erythrocytes assessed as inhibition of parasite growth measured after 72 hrs by HRP2-ELISA
Type: functional, organism-based
Conditions: 3D7, Erythrocyte
With OC[C@H](Cc1ccccc1)NC[C@@H](O)c1cc(C(F)(F)F)nc2c(C(F)(F)F)cccc12 the IC50 was 58.1 nM. Molecule O[C@@H](CNCC1CC1)c1cc(C(F)(F)F)nc2c(C(F)(F)F)cccc12 has an IC50 of 17.9 nM. In the case of O[C@H](CNCCNC(c1ccccc1)c1ccccc1)c1cc(C(F)(F)F)nc2c(C(F)(F)F)cccc12, the IC50 is reported as 23.9 nM. Work on O[C@H](CNCC1CC1)c1cc(C(F)(F)F)nc2c(C(F)(F)F)cccc12 yielded an IC50 of 12.9 nM.
